According to US5326902A, “Oxyalkyne compounds, pharmaceutical compositions containing them and processes for preparing such compounds and compositions” (Gruenenthal GmbH, priority 1992, dated 1994):
pIC50: −log10 of the molar value.

How the values were obtained:
5-lipoxygenase [1] = biological target: T1, 5-lipoxygenase (Rattus norvegicus, UniProt P12527); test: Inhibition of 5-lipoxygenase in RBL-1-cells; type: cell-based; conditions: 20 μM [14C]-arachidonic acid, 20 μM calcium ionophore A 23 187, 10 minutes
T1 construct: endogenous in cells; host or cells: RBL-1 cells (rat basophilic leukemia)
T1 sequence (P12527 1-673): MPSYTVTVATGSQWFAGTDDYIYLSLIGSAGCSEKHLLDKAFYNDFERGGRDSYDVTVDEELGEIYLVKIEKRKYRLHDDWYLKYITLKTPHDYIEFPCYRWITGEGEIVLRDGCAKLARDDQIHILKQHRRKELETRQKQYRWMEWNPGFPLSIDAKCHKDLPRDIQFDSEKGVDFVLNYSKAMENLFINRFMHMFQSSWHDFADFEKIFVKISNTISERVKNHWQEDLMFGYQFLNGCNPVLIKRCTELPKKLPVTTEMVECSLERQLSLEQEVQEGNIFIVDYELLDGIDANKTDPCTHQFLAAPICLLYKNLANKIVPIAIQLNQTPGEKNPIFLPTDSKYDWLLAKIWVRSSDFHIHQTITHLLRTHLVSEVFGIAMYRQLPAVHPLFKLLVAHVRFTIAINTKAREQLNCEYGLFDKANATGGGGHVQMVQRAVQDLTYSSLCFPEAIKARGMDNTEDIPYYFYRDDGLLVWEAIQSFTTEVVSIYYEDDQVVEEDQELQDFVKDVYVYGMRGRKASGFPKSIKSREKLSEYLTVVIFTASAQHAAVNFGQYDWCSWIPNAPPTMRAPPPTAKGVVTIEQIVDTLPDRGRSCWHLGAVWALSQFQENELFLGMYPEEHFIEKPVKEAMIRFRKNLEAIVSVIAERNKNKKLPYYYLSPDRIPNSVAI
Procedure: To determine the inhibition of 5-lipoxygenase, rat basophilic leukemia cells (RBL-1-cells) were cultured in vitro, harvested by centrifugation, washed with 50 mM potassium phosphate buffer of pH 7.4, and then suspended in this buffer at 1×10^7 cells/ml. Indomethacin (10 μM) and calcium chloride (2 mM) were added to 1 ml portions of this suspension, and then the mixture was incubated either in the presence of a compound according to the invention in a concentration range of from 0,1 μM to 100 μM or in the presence of a solvent (ethanol and/or dimethyl sulfoxide) for 3 minutes and thereafter with 20 μM of [^14 C]-arachidonic acid and 20 μM of calcium ionophore A 23 187 for 10 minutes. The reaction was stopped by adding 20 μl of glacial acetic acid, and then the mixture was extracted with ethyl acetate to isolate the metabolites of arachidonic acid formed by the enzymatic action of 5-lipoxygenase. These were separated by thin layer chromatography using a solvent mixture known to be suitable for lipoxygenase products [c.f. Jakschik et al., Biochem. Biophys. Res. Commun. 102, 624 (1981)].
The distribution of radioactivity among the different metabolites of arachidonic acid was measured using a TLC Linear Analyzer. By correlating the percentage amounts of the products formed under the action of 5-lipoxygenase (5HETE, isomers of LTB4) in the absence as well as in the presence of different concentrations of compounds according to the invention, the IC50 -values, i.e. the concentrations which cause a 50% inhibition of 5-lipoxygenase, were determined graphically from semilogarithmic plots.

Leukotriene-synthesis = test: Inhibition of Leukotriene-synthesis Induced by FMLP/merthiolate of Human Polymorphonuclear Leukocytes; type: cell-based; conditions: Leukocyte, 5 minutes preincubation at 37° C., centrifuged and resuspended in HBSS before merthiolate (40 μM) and FMLP (10^-7 M), read-out: IC50-value of the reversible inhibitory action
Procedure: Human granulocytes were isolated by dextran sedimentation and a Percoll gradient method and suspended in HBSS (Hanks buffered saline solution) at 1×10^7 cells/ml. The cells were incubated in the presence of a compound according to the invention or a solvent (ethanol and/or dimethyl sulfoxide) at 37° C. for 2 minutes, then with merthiolate (sodium ethylmercurithiosalicylate; 40 μM) for 2 minutes and thereafter with FMLP (formyl-methionyl-leucylphenylalanine; 10^-7 M) for 15 minutes. After solid phase extraction, the metabolites of arachidonic acid 5-HETE, LTB4, 6-trans-LTB4 -isomers, 20-OH-LTB4 and 20-COOH-LTB4 were identified by RP-HPLC (M. Haurand and L. Flohe in Biochem. Pharmacol. 38, 2129 to 2137 (1989)).
To investigate the reversibility of the inhibitory action, the cells were incubated with a compound according to the invention or a solvent (ethanol and/or dimethyl sulfoxide) at 37° C. for 5 minutes, centrifuged at 300 × g for 5 minutes, and resuspended in 2 ml of HBSS. Then the cells were incubated with merthiolate (40 μM) at 37° C. for 2 minutes and thereafter with FMLP (10^-7 M) for 15 minutes. The IC50 -value of the reversible inhibitory action was 2 μmolar when the compound prepared according to Example 1 was used.

5-lipoxygenase [2] = test: Inhibition of 5-lipoxygenase in Rat Blood After Oral Administration (ex vivo iLTB4-formation); conditions: 21.5 mg/kg oral, male Wistar rats, one hour after administration
Procedure: The bioavailability of the compounds of formula I as 5-lipoxygenase inhibitors was characterized by means of an ex vivo biochemical assay method described by Tateson et al. in Brit. J. Pharmacol. 94, 528 (1988): A compound of formula I was orally administered to male rats (Wistar strain) at a dose of 21.5 mg/kg. After lethal CO2 -narcosis one hour after administration, the rats were bled by heart puncture with added heparin as an anticoagulant. Aliquots of the whole blood were incubated at 37° C. for 30 minutes in a water bath with calcium ionophore A 23 187 at an end concentration of 15 μg/ml. At the end of the incubation, the samples were centrifuged, and the concentration of the immunoreactive LTB4 (iLTB4) in aliquots of cell-free plasma was determined by radioimmunoassay (3H-LTB4 -RIA, Amersham). To enable calculation of the inhibition in percent of ex vivo iLTB4 -formation in whole rat blood treated with a compound according to the invention, rats orally treated with an appropriate vehicle solution were included in all experiments, and aliquots of their blood were run in parallel and were processed in the same way as described. The average iLTB4 -content of the plasma of the vehicletreated rats served as a 100% value. The activity in percent of the ex vivo iLTB4 -formation after oral administration of a compound according to the invention was calculated by dividing the average value of the iLTB4 -contents in ng iLTB4 /ml of the group treated with a compound according to the invention by the average value of the iLTB4 -contents in ng iLTB4 /ml of the vehicle treated group and subsequent multiplication by a factor of 100. The respective inhibition in percent was calculated by subtracting the activity in percent from 100.

pIC50 (5-lipoxygenase [1]): 5.30 | pIC50 (Leukotriene-synthesis): 5.70
Compound: CC(=O)N(O)Cc1ccc(C(O)C#Cc2ccccc2)cc1 (racemic) [Example 1, N-Hydroxy-N-[4-[1-hydroxy-3-phenyl-prop-2-yn-1-yl]benzyl]acetamide]
Inhibition [%] of ex vivo iLTB4-formation (5-lipoxygenase [2]): 93%
